Reference: ChEMBL document CHEMBL1201862, “PubChem BioAssay data set” (2004)
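These data come from cells grown in 96-well plates and exposed to compound for 48 hours at five concentrations. The concentration for 50% growth inhibition is given as GI50.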 Activity calls are given as the source filed them. No stated cut-off is given here; in the data, active = GI50 up to about 1.1 µM and inactive = higher.

Assays:
Assay in all cases: NCI tumour cell line growth inhibition, 48 h
Malme-3M = tested on: Malme-3M
UO-31 = tested on: UO-31
RXF 393 = tested on: RXF 393
MDA-MB-435 = tested on: MDA-MB-435
TK-10 = tested on: TK-10
A498 = tested on: A498
SNB-19 = tested on: SNB-19
MOLT-4 = tested on: MOLT-4
ACHN = tested on: ACHN
NCI/ADR-RES = tested on: NCI/ADR-RES
SK-MEL-2 = tested on: SK-MEL-2
SNB-75 = tested on: SNB-75
HCC 2998 = tested on: HCC 2998
UACC-257 = tested on: UACC-257
OVCAR-5 = tested on: OVCAR-5
SF-539 = tested on: SF-539
U-251 = tested on: U-251
CCRF-CEM = tested on: CCRF-CEM
NCI-H522 = tested on: NCI-H522

Measured: GI50

COC(=O)N1CC2(CO)C3CC=C(C(=O)Nc4ccccc4Br)C2C1C3Br (configuration not stated)
inactive: Malme-3M > 50 µM | UO-31 > 50 µM | RXF 393 > 50 µM | MDA-MB-435 > 50 µM | TK-10 > 50 µM | A498 > 50 µM | SNB-19 > 50 µM | MOLT-4 > 50 µM | ACHN > 50 µM | NCI/ADR-RES > 50 µM | SK-MEL-2 > 50 µM | SNB-75 > 50 µM | HCC 2998 > 50 µM | UACC-257 > 50 µM | OVCAR-5 > 50 µM | SF-539 > 50 µM | U-251 > 50 µM | CCRF-CEM > 50 µM

O=C(N/N=C/c1ccccc1)c1c(-c2cccnc2)cnc2ccccc12
inactive: Malme-3M > 100 µM | UO-31 > 100 µM | RXF 393 > 100 µM | TK-10 > 100 µM | SNB-19 > 100 µM | MOLT-4 > 100 µM | ACHN > 100 µM | NCI/ADR-RES 69.5 µM | SK-MEL-2 > 100 µM | NCI-H522 > 100 µM | SNB-75 34.8 µM | HCC 2998 > 100 µM | UACC-257 88.9 µM | OVCAR-5 > 100 µM | SF-539 70.3 µM | U-251 56.4 µM | CCRF-CEM > 100 µM

CCOC(=O)/C(=N\Nc1ccc(-n2c(C)nc3ccc(Br)cc3c2=O)cc1)C(C)=O
inactive: UO-31 29.8 µM | MDA-MB-435 50.6 µM | TK-10 60.3 µM | A498 52.7 µM | SNB-19 52.1 µM | MOLT-4 25.2 µM | ACHN 93.1 µM | NCI/ADR-RES 52 µM | SK-MEL-2 70 µM | SNB-75 30.7 µM | UACC-257 84.5 µM | OVCAR-5 > 100 µM | SF-539 38.8 µM | U-251 59.6 µM | CCRF-CEM 31.1 µM

O=c1cc(CN2CCCCC2)nc2ccc3c(O)cc(CN4CCCCC4)nc3n12
inactive: UO-31 > 100 µM | RXF 393 > 100 µM | MDA-MB-435 > 100 µM | TK-10 > 100 µM | A498 > 100 µM | SNB-19 > 100 µM | MOLT-4 89.7 µM | ACHN > 100 µM | NCI/ADR-RES > 100 µM | SK-MEL-2 > 100 µM | SNB-75 > 100 µM | HCC 2998 > 100 µM | UACC-257 88.9 µM | OVCAR-5 > 100 µM | SF-539 > 100 µM | U-251 > 100 µM | CCRF-CEM > 100 µM

COC(=O)C(=O)C(C(=O)C(=O)Nc1ccccc1C(C)=O)c1nc2ccc(C(=O)c3ccccc3)cc2nc1O (configuration not stated)
inactive: Malme-3M > 100 µM | UO-31 26.7 µM | RXF 393 51.5 µM | TK-10 > 100 µM | A498 > 100 µM | SNB-19 52 µM | MOLT-4 56.2 µM | ACHN 73.8 µM | NCI/ADR-RES 30.6 µM | SK-MEL-2 > 100 µM | NCI-H522 28.4 µM | SNB-75 32.7 µM | HCC 2998 78.3 µM | UACC-257 > 100 µM | OVCAR-5 > 100 µM | SF-539 76.7 µM

S=C1Nc2ccccc2SC1c1ccccc1 (configuration not stated)
inactive: Malme-3M 92.3 µM | UO-31 > 100 µM | RXF 393 16.6 µM | MDA-MB-435 > 100 µM | TK-10 56.6 µM | SNB-19 39 µM | MOLT-4 > 100 µM | ACHN 69.3 µM | NCI/ADR-RES 56.1 µM | NCI-H522 > 100 µM | SNB-75 23.6 µM | UACC-257 > 100 µM | OVCAR-5 > 100 µM | U-251 47.1 µM | CCRF-CEM 2.96 µM

c1ccc2c(c1)nc1n2CSCC1
inactive: UO-31 > 100 µM | RXF 393 > 100 µM | MDA-MB-435 > 100 µM | TK-10 > 100 µM | A498 > 100 µM | SNB-19 > 100 µM | MOLT-4 > 100 µM | ACHN > 100 µM | NCI/ADR-RES > 100 µM | SK-MEL-2 > 100 µM | SNB-75 > 100 µM | HCC 2998 > 100 µM | UACC-257 > 100 µM | OVCAR-5 > 100 µM | SF-539 > 100 µM | U-251 > 100 µM | CCRF-CEM > 100 µM

CCCCCCCCCCCCNC(=O)NCC(OCC)OCC
inactive: RXF 393 > 10 µM | MDA-MB-435 > 10 µM | TK-10 > 10 µM | A498 > 10 µM | SNB-19 > 10 µM | MOLT-4 > 10 µM | ACHN > 10 µM | SK-MEL-2 > 10 µM | NCI-H522 > 10 µM | SNB-75 > 10 µM | HCC 2998 > 10 µM | UACC-257 > 10 µM | OVCAR-5 > 10 µM | SF-539 > 10 µM | U-251 > 10 µM | CCRF-CEM > 10 µM

CC(C)/C(Cl)=N\OC(=O)Nc1cccc(F)c1
inactive: Malme-3M 6.24 µM | UO-31 18.6 µM | RXF 393 17.1 µM | TK-10 14.8 µM | A498 12.9 µM | SNB-19 > 100 µM | MOLT-4 2.28 µM | ACHN 14.6 µM | NCI/ADR-RES 17.1 µM | SK-MEL-2 7.76 µM | NCI-H522 1.49 µM | SNB-75 22.6 µM | HCC 2998 19.3 µM | UACC-257 15.8 µM | OVCAR-5 17.7 µM | SF-539 18.6 µM | U-251 17.2 µM | CCRF-CEM 1.9 µM

CN(C)CCn1c(=O)oc2cc(C(=O)CN3CCOCC3)ccc21
inactive: Malme-3M > 100 µM | UO-31 88.1 µM | RXF 393 > 100 µM | MDA-MB-435 > 100 µM | TK-10 > 100 µM | SNB-19 > 100 µM | MOLT-4 > 100 µM | ACHN > 100 µM | NCI/ADR-RES > 100 µM | SK-MEL-2 > 100 µM | SNB-75 > 100 µM | UACC-257 > 100 µM | OVCAR-5 > 100 µM | SF-539 > 100 µM | U-251 > 100 µM | CCRF-CEM > 100 µM

CCOC(=O)C(C)c1nc2cc(F)c(F)cc2[nH]c1=O (configuration not stated)
inactive: Malme-3M > 100 µM | UO-31 > 100 µM | RXF 393 > 100 µM | MDA-MB-435 > 100 µM | TK-10 > 100 µM | SNB-19 > 100 µM | MOLT-4 > 100 µM | ACHN > 100 µM | NCI/ADR-RES > 100 µM | SK-MEL-2 > 100 µM | SNB-75 > 100 µM | HCC 2998 > 100 µM | UACC-257 > 100 µM | OVCAR-5 > 100 µM | SF-539 > 100 µM | U-251 > 100 µM | CCRF-CEM > 100 µM

COc1ccc(C[C@@H]2Cc3cc(OC)c(OC)cc3CN2C)cc1
inactive: Malme-3M > 100 µM | UO-31 > 100 µM | TK-10 > 100 µM | A498 > 100 µM | SNB-19 > 100 µM | MOLT-4 > 100 µM | ACHN > 100 µM | SK-MEL-2 > 100 µM | NCI-H522 > 100 µM | SNB-75 > 100 µM | HCC 2998 > 100 µM | UACC-257 > 100 µM | OVCAR-5 > 100 µM | U-251 > 100 µM | CCRF-CEM > 100 µM
